Assay results from patent US7148194B2, “Method to increase fibronectin” (Kimberly-Clark Worldwide, Inc., priority 2002, dated 2006).

Test system: C57BL6/KsJ db/db mice
Assay: wound healing in db/db diabetic mice
Type: in vivo
Text: The mice were obtained from The Jackson Laboratories and were aged 3–7 months before the onset of the wounding protocol. All mice were anesthetized prior to wounding. Wounds were created in C57BL6/KsJ db/db mice with a 4 mm biopsy punch. Two wounds were introduced onto the upper back of each animal by pulling the skin away from underlying structures and pushing the punch through the isolated skin. Typically, wounds were created to an average depth of 1.7 mm, with a range of 1.3 to 2.2 mm. No muscle involvement occurred during the course of wounding.
Each day the wounds were digitally photographed and wound areas were determined by computer integration of the photographs. All wound treatments and the subsequent data analyses were performed in a blind manner (see e.g., Brown et al., 1994). Wound area at the time of wounding (day 0) is arbitrarily set to a relative value of 1 for all wounds; such that subsequent wound areas are converted to relative wound areas by dividing the wound area at day n by the wound area at day zero.

[1] = single dose 5 μL of 20 μg/mL at day zero

CC(C)[C@H](NC(=O)[C@H](CC(=O)O)NC(=O)[C@@H]1CCCN1C(=O)[C@H](CC(N)=O)NC(=O)CNC(=O)[C@H](CS)NC(=O)[C@H](CCCNC(=N)N)NC(=O)[C@@H]1CCCN1)C(=O)N[C@@H](C)C(=O)N[C@@H](CC(N)=O)C(=O)N[C@@H](Cc1ccc(O)cc1)C(=O)N[C@@H](CC(N)=O)C(=O)N[C@@H](Cc1ccccc1)C(=O)N[C@@H](Cc1ccccc1)C(=O)N1CCC[C@H]1C(=O)N[C@@H](CCCNC(=N)N)C(=O)N[C@@H](CCCCN)C(=O)N1CCC[C@H]1C(=O)N[C@@H](CCCCN)C(=O)O [Peptide 19-mer]
wound inflammation (day one post wounding): reduction in wound inflammation
day on which wound contraction process began [1]: 5 days
time to wound closure post wounding [1]: 9 days
